{"source": "patent US20060276416A1", "about": "“Methods and compositions for treating flushing and drug induced weight gain” (Sirtris Pharmaceuticals, Inc., priority 2005, published 2006)", "key": {"[1]": {"target": "recombinant GST-Sir2 (Saccharomyces cerevisiae, UniProt P06700)", "sequence (P06700 whole entry)": "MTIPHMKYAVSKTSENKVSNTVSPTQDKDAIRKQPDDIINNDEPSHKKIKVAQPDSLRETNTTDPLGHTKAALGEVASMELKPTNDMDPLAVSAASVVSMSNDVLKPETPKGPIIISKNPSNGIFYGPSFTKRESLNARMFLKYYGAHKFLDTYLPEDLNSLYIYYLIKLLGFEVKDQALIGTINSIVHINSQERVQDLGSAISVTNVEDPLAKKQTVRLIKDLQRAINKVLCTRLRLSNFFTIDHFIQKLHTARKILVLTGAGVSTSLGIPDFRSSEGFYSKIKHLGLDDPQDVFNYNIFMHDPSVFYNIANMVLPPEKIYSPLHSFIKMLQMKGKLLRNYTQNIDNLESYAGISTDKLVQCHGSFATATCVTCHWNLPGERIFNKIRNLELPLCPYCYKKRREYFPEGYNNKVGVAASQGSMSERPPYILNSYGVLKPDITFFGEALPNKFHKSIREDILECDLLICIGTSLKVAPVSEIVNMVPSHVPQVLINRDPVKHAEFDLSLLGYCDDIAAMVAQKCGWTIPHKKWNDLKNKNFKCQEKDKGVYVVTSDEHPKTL", "experiment": "Sir2 deacetylation assay", "assay_type": "biochemical, S. cerevisiae", "description": "Average lifespan for wild type, 22.9 generations, quercetin, 23.4; piceatannol.\nHis6-tagged recombinant SIRT1 and GST-tagged recombinant Sir2 were prepared as previously described^26. From 0.1 to 1 μg of SIRT1 and 1.5 μg of Sir2 were used per deacetylation assay (in 50 μl total reaction) as previously described^26. SIRT1 assays and certain of those for Sir2 employed the p53-382 acetylated substrate (‘Fluor de Lys-SIRT1’, BIOMOL) rather than FdL.\nThemed compound libraries (BIOMOL) were used for primary and secondary screening. Most polyphenol compounds were dissolved at 10 mM in dimethylsulfoxide (DMSO) on the day of the assay. For water soluble compounds and negative controls, 1% v/v DMSO was added to the assay. In vitro fluorescence assay results were read in white ½-volume 96-well microplates (Corning Costar 3693) with a CytoFluor™ II fluorescence plate reader (PerSeptive Biosystems, Ex. 360 nm, Em. 460 nm, gain=85). HeLa cells were grown and the cellular deacetylation assays were performed and read, as above, but in full-volume 96-well microplates (Corning Costar 3595). […] Calculation of net fluorescence increases included subtraction of a blank value, which in the case of Sir2 was obtained by omitting the enzyme from the reaction and in the case of SIRT1 by adding an inhibitor (200 μM suramin or 1 mM nicotinamide) to the reaction prior to the acetylated substrate. […]"}, "[2]": {"system": "TNF-alpha treated adipocytes", "experiment": "Radioactive glucose uptake in TNF-alpha treated insulin resistant adipocytes", "assay_type": "cell-based", "settings": "resveratrol 5 μM or 15 μM; roziglitazone 4 μM"}, "[3]": {"target": "recombinant SIR-2.1 (Caenorhabditis elegans, UniProt Q21921)", "sequence (Q21921 whole entry)": "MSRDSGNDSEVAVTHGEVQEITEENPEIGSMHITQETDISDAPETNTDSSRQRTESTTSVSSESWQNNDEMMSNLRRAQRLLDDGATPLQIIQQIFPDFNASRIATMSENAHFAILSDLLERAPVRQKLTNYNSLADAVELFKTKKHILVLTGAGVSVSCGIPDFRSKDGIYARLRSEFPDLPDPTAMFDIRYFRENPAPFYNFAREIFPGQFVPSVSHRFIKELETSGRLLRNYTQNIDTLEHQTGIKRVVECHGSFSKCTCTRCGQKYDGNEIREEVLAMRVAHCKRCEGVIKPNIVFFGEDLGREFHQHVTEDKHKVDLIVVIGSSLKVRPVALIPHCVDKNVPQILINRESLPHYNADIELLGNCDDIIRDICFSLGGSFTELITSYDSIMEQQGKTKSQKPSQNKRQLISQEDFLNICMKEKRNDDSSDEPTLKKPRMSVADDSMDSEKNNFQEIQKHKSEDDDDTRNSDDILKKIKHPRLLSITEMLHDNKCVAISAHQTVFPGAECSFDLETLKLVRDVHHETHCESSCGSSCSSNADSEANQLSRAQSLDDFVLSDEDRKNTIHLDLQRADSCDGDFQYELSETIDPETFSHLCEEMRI", "experiment": "SIR-2.1 deacetylation assay (Fluor de Lys)", "assay_type": "biochemical, C. elegans", "quoted_text": "(§4) From 0.1 to 1 μg of SIR-2.1 and 1 μg of dSir2 were used per deacetylation assay as previously described with modifications (SIR-2.1: 200 μM NAD^+, 10 μM Fluor de Lys, FdL; dSir2: 25 μM NAD^+, 10 μM FdL)^26. STACs were dissolved at 10 mM in dimethylsulfoxide (DMSO) the day of the assay. In vitro fluorescence assay results were read in 96-well microplates (Corning Costar 3693) with a Wallac Victor Multilabel counter (Perkin Elmer, excitation at 360 nm, emission at 450 nm). Drosophila S2 cells were grown in Schneider media with fetal calf serum at 23-28° C., seeded at 9×10^4 cells/well, grown overnight and then exposed to 1 μM TSA, 500 μM polyphenols, and 200 μM FdL for 2 hr. Deacetylation of FdL with lysate from whole cells was determined as described^4. Unless otherwise indicated all initial rate measurements were means of three or more replicates obtained with single incubation times, at which point 5% or less of the substrate initially present was deacetylated."}, "[4]": {"system": "D. melanogaster", "experiment": "D. melanogaster survival (lifespan) assay", "assay_type": "in vivo", "description": "Survival assays were conducted independently with adult D. melanogaster in two laboratories. In the first laboratory, all trials used an yw marked wild-type strain. Larvae were reared on standard cornmeal-sugar-yeast (CSY) agar diet (cornmeal 5%, sucrose 10.5%, SAF yeast 2%, and agar 0.7%). Newly eclosed adults were placed in 1 L demography cages with approximately 75 males and 75 females. Three to four replicate 1 L demography cages were used for each treatment group in each trial. Every two days, dead flies were removed and scored, and food vials were replenished. Food vials contained cornmeal-sugar-yeast diet with SAF yeast as either 2% or 3% by weight. Test compounds in 100 μl of EtOH (or blank EtOH in controls) were mixed into melted aliquots of the adult food media to make a final concentration of 0, 10 or 100 μM. Fresh stock solutions and adult media were prepared weekly. In the second laboratory, lifespan trials were conducted with the wild type strain Canton-S, dSir2^4.5 and dSir2^5.26 (S. Smolik, University of Oregon), dSir2^17 (S. Astrom, Stockholm University, Sweden), and dSir2^KG00871 (Drosophila Stock Center, Bloomington, Ind.). Larvae for all tests were reared on standard cornmeal-sugar-yeast diet. Newly eclosed adults were incubated in plastic shell vials containing 5 ml of 15% sugar-yeast diet (15% SY) or 5% sugar-yeast (5% SY) diet (15% SY: 15% yeast, 15% sucrose, 2% agar; 5% SY: 5% yeast, 5% sucrose, 2% agar as per Ref.^20). In all trials, ˜20 males with ˜20 females were placed into each of 10 vials/treatment group. Every two days, flies were passed into new vials and dead flies were counted. […] Final compound concentrations were 0, 10, 100 or 200 μM. Fresh stock solution and adult media was prepared weekly."}, "[5]": {"system": "AMPK and ACC phosphorylation", "experiment": "AMPK and ACC phosphorylation in mouse embryonic fibroblasts without LKB1", "assay_type": "cell-based", "settings": "LKB1 -/- cells; 50, 100, 200 μM", "description": "Blots were stained for the presence of P-ACC, P-AMPK, AMPK, or tubulin as indicated on the left.\nSimilar results were also observed in mouse embryonic fibroblast (MEFs). […] Cells in the left panel were incubated overnight without serum before harvesting; the cells on the right were not incubated under serum free conditions. […] Tubulin served as a loading control."}, "[6]": {"system": "NIH3T3 cells", "experiment": "Adipocyte differentiation and fat content, Oil Red O", "assay_type": "cell-based", "settings": "10 days of differentiation", "description": "(§1) After 10 days of differentiation, cells were fixed and stained with Oil red O. Oil red 0 was extracted from stained cells and quantified by measuring absorbance at 520 nm. B. Oil red 0 quantitation is shown as fold change relative to the 3T3-L1 sample treated with 0 μM resvratrol.\n(§2) After 10 days of differentiation, fat content was assessed by Oil Red O staining, as described below. […] The results in NIH3T3 cells confirm the results obtained in C. elegans.\n(§3) 3T3-L1 and NIH3T3 cells were maintained in DMEM plus 10% calf serum. Adipocyte differentiation of 3T3-L1 cells was performed as described previously (MacDougald, O. A. and Lane, M. D. (1995). Transcriptional regulation of gene expression during adipocyte differentiation. Annu. Rev. Biochem. 64, 345-373). NIH3T3 cells were induced to form adipocytes under the same conditions as 3T3-L1 cells, but with 6 days of treatment with insulin, dexamethasone, and isobutylmethylxanthine in 10% fetal calf serum after cells reach confluence. The staining of adipocytes with Oil Red-O and quantitation was performed as described previously (Ramirez-Zacarias J L, Castro-Munozledo F, Kuri-Harcuch W. Histochemistry. 1992 97(6): 493-7)."}, "[7]": {"system": "3T3-L1 cells", "experiment": "Adipocyte differentiation and fat content, Oil Red O", "assay_type": "cell-based", "description": "as §1, §2, §3"}, "[8]": {"system": "lysine 382 of p53", "experiment": "p53 K382 acetylation Western blot in UV-irradiated U2OS cells", "assay_type": "cell-based, human", "quoted_text": "FdL (200 μM) is added to growth media and cells incubated for 1-3 hours to allow FdL to enter the cells and the lysine-deacetylated product (deAc-FdL) to accumulate intracellularly. Cells are lysed with detergent in the presence of 1 μM TSA, 1 mM nicotinamide. […] Cells were grown adherently in DMEM/10% FCS and treated for 1 hour with 200 μM FdL, 1 μM TSA and either vehicle (0.5% final DMSO, Control) or 500 μM of the indicated compound. Intracellular accumulation of deAc-FdL was then determined as described briefly in a. […] Lysates were prepared and analyzed as above.\nWhole cell extracts were prepared by lysing cells in buffer containing 150 mM NaCl, 1 mM MgCl2, 10% glycerol, 1% NP40, 1 mM DTT and anti-protease cocktail (Roche)."}, "[9]": {"target": "recombinant dSir2 (Drosophila melanogaster, UniProt Q9VK34)", "sequence (Q9VK34 whole entry)": "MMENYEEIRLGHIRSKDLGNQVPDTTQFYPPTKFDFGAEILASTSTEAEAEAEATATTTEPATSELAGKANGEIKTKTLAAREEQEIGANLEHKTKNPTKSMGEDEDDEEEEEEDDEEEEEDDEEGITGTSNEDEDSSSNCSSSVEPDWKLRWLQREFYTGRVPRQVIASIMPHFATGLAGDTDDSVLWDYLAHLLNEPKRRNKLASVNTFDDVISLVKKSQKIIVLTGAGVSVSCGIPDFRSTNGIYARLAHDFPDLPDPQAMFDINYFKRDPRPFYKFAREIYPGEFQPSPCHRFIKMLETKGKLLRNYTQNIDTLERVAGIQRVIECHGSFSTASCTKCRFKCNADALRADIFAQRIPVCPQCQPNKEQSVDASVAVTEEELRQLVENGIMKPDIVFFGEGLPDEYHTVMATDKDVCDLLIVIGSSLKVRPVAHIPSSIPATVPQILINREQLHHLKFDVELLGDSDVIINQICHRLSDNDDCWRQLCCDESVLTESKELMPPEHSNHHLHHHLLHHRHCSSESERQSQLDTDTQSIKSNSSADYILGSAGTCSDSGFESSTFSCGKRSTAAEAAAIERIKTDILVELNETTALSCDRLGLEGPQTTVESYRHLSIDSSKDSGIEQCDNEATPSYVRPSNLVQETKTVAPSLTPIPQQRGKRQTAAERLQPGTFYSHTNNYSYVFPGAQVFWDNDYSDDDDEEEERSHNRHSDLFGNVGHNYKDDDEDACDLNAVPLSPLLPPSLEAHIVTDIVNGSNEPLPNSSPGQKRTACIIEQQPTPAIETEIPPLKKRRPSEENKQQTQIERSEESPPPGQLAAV", "experiment": "dSir2 deacetylation assay (Fluor de Lys)", "assay_type": "biochemical, D. melanogaster", "settings": "dose-dependent; maximum", "quoted_text": "as §4"}}, "note": "“Also recorded” adds a separate entry of the source.", "data": [{"smiles": "Oc1ccc(/C=C/c2cc(O)cc(O)c2)cc1", "note": "[Resveratrol, 3,5,4′-Trihydroxy-trans-stilbene]", "values": [{"measurement": "Concentrations at which inhibition was seen", "setting": "[1]", "value": "> 100", "unit": "µM"}, {"measurement": "Optimum concentration of activator", "setting": "[1]", "value": "2 to 5", "unit": "µM"}, {"measurement": "Insulin sensitivity (radioactive glucose uptake)", "setting": "[2]", "value": "partially rescued"}, {"measurement": "Km of SIR-2.1 for the co-substrate NAD+", "setting": "[3]; 100 μM resveratrol, 10 μM Fluor de Lys", "value": "lowered"}, {"measurement": "Stimulation of deacetylation", "setting": "[3]; dose-dependent, maximum", "value": "up to 2.5 fold"}, {"measurement": "Lifespan increase", "setting": "[4]; Canton-S/dSir2 KG0087, maximum", "value": "up to 17%"}, {"measurement": "Lifespan extension (in words)", "setting": "[4]; dSir2 4.5/5.26 (no functional dSir2) or dSir2 17/KG00871 (severely decreased), 100 μM", "value": "failed to extend lifespan"}, {"measurement": "Increase of longevity (in words)", "setting": "[4]; flies homozygous for a hypomorphic dSir2 allele", "value": "small but statistically significant amount"}, {"measurement": "Longevity under restricted diet", "setting": "[4]; restricted diet", "value": "neither resveratrol nor fisetin further increased longevity"}, {"measurement": "Lifespan extension", "setting": "[4]; wild type strains, males and females, independent tests, maximum", "value": "up to 29%"}, {"measurement": "AMPK and ACC phosphorylation", "setting": "[5]", "value": "upregulation of both AMPK and ACC phosphorylation"}, {"measurement": "Concentrations that decreased the quantity of cellular fat", "setting": "[6]", "value": "≥ 25", "unit": "µM"}, {"measurement": "Concentrations that decreased the quantity of cellular fat", "setting": "[7]; 10 days of differentiation", "value": "≥ 25", "unit": "µM"}, {"measurement": "PPARγ expression", "setting": "[7]; resveratrol-treated cells", "value": "did not show an increase; also recorded: marked decrease"}, {"measurement": "Level of Ac-K382", "setting": "[8]; 0.5 μM resveratrol, 4 hours pre-treatment, UV radiation", "value": "marked decrease"}, {"measurement": "Level of Ac-K382", "setting": "[8]; higher concentrations of resveratrol (>50 μM)", "value": "reversed"}, {"measurement": "Stimulation of deacetylation", "setting": "[9]", "value": "≤ 2.4", "unit": "fold"}]}]}
